Data: publication PMC9516243, “Design of stapled peptide-based PROTACs for MDM2/MDMX atypical degradation and tumor suppression” (Theranostics, 2022)
Positions of bridges follow the written chain, without caps; N, C: chain ends. Non-standard residues stand in square brackets, D forms with d. Residues, ends and D or L forms follow the SMILES beside them. Hyp = O=C(O)[C@@H]1C[C@@H](O)CN1; R8 = C=CCCCCCC[C@@](C)(N)C(=O)O; hLeu = CC(C)CC[C@H](N)C(=O)O; S5 = C=CCCC[C@](C)(N)C(=O)O; AEA = NCCOCC(=O)O

How the values were obtained:
[1] = α-Helicity by CD spectroscopy; type: physicochemical; conditions: PB pH 7.2, 10-50 µM peptide, 20°C, calculated from [θ]222
Description: Peptides were dissolved in PB (pH = 7.2) to concentrations ranging from 10 to 50 µM. CD spectra were obtained on a Jasco J-715 spectropolarimeter at 20°C. The spectra were collected using a 0.1 cm path length quartz cuvette with the following measurement parameters: wavelength, 185-255 nm; step resolution, 0.1 nm; speed, 20 nm/min; accumulations, 6; bandwidth, 1 nm. The helical content of each peptide was calculated as reported previously.

^25-109MDM2 = molecular target: T1, ^25-109MDM2 (Homo sapiens, UniProt Q00987); assay: FP-based competitive binding assay; conditions: MDM2 40 nM, fluorescently tagged p53 peptide 20 nM, PBS pH 7.4, 30 min room temperature; mean of three independent measurements
T1 construct: established using ^25-109MDM2, ^24-108MDMX
Description: (§1) An FP-based competitive or binding assay was established using ^25-109MDM2, ^24-108MDMX, and a fluorescently tagged p53-derived peptide as previously described. [34]-[36] For dose-dependent competitive binding experiments, MDM2 or MDMX protein (40 nM) was first incubated with TAMRA-p53 peptide (20 nM) in PBS (pH 7.4) on a Costar 96-well plate, to which a serially diluted solution of test peptide was added to a final volume of 125 μL. After 30 min of incubation at room temperature, the FP values were measured at λex = 530 nm and λem = 580 nm on a Tecan Infinite M1000 plate reader. For binding experiments, FITC-labeled SPMI-HIF2-1 (20 nM) was incubated with different concentrations of MDM2, MDMX, and VHL proteins. Curve fitting was performed using GraphPad Prism software, and Ki values were calculated as described previously. Three replicates and three independent experiments were performed.

^24-108MDMX = molecular target: T2, ^24-108MDMX (Homo sapiens, UniProt O15151); assay: FP-based competitive binding assay; conditions: MDMX 40 nM, fluorescently tagged p53 peptide 20 nM, PBS pH 7.4, 30 min room temperature; mean of three independent measurements
T2 construct: ^24-108MDMX, and a fluorescently tagged p53-derived peptide
T2 sequence (O15151 24-108): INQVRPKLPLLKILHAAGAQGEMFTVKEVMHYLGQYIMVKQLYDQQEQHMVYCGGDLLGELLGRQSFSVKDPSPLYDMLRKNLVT
Description: as §1

circular dichroism = conditions: phosphate buffer (PB); pH 7.2; 20 °C; 10-50 uM
HCT116 p53^+/+ cells = assay: Cell viability assay (CCK-8); type: cell-based, human
Description: The human colon carcinoma cell line HCT116 p53^+/+ was obtained from the Cell Bank of the Chinese Academy of Sciences (Shanghai, China). HCT116 p53^-/- cells were generously provided by Prof. Vogelstein of Johns Hopkins University. Both cell lines were cultured in McCoy's 5A medium (Gibco, USA) containing 10% FBS, 100 units/ml penicillin, and 100 μg/ml streptomycin at 37 °C in a humidified incubator containing 5% CO2. Cell viability was measured using a Cell Counting Kit-8 (CCK-8) (Dojindo, Kumamoto, Japan) according to the manufacturer's instructions. In brief, the cells (5 × 10^3 cells/well in […] medium) were cultured for 24 h in 96-well microplates in a humidified 5% CO2 incubator at 37 °C and then treated with varying concentrations of compounds or 0.1% DMSO vehicle control.

[2] = system: MDM2 and MDMX in HCT116 cells; assay: Western blot of MDM2 and MDMX protein levels; type: cell-based, human
Description: HCT116, MCF-7, or other cells were seeded in six-well plates (4 × 10^5 cells/well) and treated with PROTACs at the indicated concentrations for 24 h. The cells were lysed in RIPA lysis buffer. The protein concentrations were measured using the BCA method and equal amounts of each sample were separated by SDS-PAGE, followed by transfer onto filter membranes. Then, the membranes were blocked and incubated with primary antibodies (Abcam, UK) at 4 °C overnight, followed by incubation with the secondary antibodies. The protein bands were identified using a ChemiDoc MP Imaging System (Bio-Rad, USA).

α-Chymotrypsin = assay: Proteolytic stability against chymotrypsin; type: in vitro ADME; conditions: chymotrypsin 5 ng/μl (10 μl) added to 1 ml of 1 mM peptide, PBS 50 mM pH 7.4, 2 mM CaCl2, 25°C, HPLC, 90 min, read-out: intact peptide still observed after proteolytic digestion for 90 min
Description: Peptides were dissolved in PBS (50 mM, pH = 7.4) to a final concentration of 1 mM. α-Chymotrypsin was dissolved in PBS (50 mM, containing 2 mM of CaCl2, pH = 7.4) to a final concentration of 5 ng/μl. Then the peptide solutions (1 ml) were incubated with […] (10 μl) at 25°C. Samples were taken at 0, 5, 30, 60, 90, and 120 min and reactions were quenched with 20 μL of hydrochloric acid (1 M). The solution of the trypsin peptide fragments was monitored by HPLC at different time points to determine the fraction of protease degradation.

Pharmacokinetic study = type: in vivo; conditions: mouse, iv, male ICR mice, 1.8 mg/kg single i.v. tail vein, plasma, UPLC-ESI-QqQ-MS, n = 5
Description: The peptides (1.8 mg/kg) were individually dosed in mice intravenously via tail vein injection and the blood samples were collected from the orbital venous plexus at 0, 0.5, 1, 2, 4, 6, 10, 24, and 48 h. All blood samples were centrifuged at 3000 rpm for 10 min, and the obtained plasma samples were immediately frozen at -80 °C until use. The standard curve was established as follows: Stock solutions of PMI-HIF1-1 and SPMI-HIF2-1 dissolved in acetonitrile were spiked into control plasma at final concentrations of 4000, 2000, 1000, 500, 250, 125, 62.5, 31.25, 15.625, 7.8125, 3.90625, 1.953125, and 0.9765625 ng/ml. […] Plasma samples (30 μL) were treated with 90 μL acetonitrile for protein precipitation. Then all samples were vortexed for 2 min and centrifuged for 15 min at 13000 rpm and 4°C. The supernatants were analyzed by ultraperformance liquid chromatography-electrospray ionization-tandem triple quadrupole mass spectrometry (UPLC-ESI-QqQ-MS, Shimadzu 8040). The system was equipped with an XBridge BEH C18 column (2.5 μm, 2.1×100 mm; Waters, Milford, MA, USA). The column temperature was set at 35°C. The injection volume was 4 μl. […] The plasma concentration at each time point was calculated from the extracted peak area of the same mass peaks of each peptide using the corresponding standard curve.

CC(=O)N[C@H](C(=O)N[C@@H](CO)C(=O)N[C@@H](Cc1ccccc1)C(=O)N[C@]1(C)CCCCCCC=CCCC[C@@](C)(C(=O)NCCOCC(=O)N[C@@H](CC(C)C)C(=O)N[C@@H](C)C(=O)N2C[C@H](O)C[C@H]2C(=O)N[C@@H](Cc2ccc(O)cc2)C(=O)N[C@@H](CCC(C)C)C(=O)N2CCC[C@H]2C(N)=O)NC(=O)[C@H](CC(C)C)NC(=O)[C@H](CC(C)C)NC(=O)[C@H](C)NC(=O)[C@H](Cc2c[nH]c3ccccc23)NC(=O)[C@H](Cc2ccc(O)cc2)NC(=O)[C@H](CCC(=O)O)NC1=O)[C@@H](C)O [SPMI-HIF2-1] (Ac-TSF[R8]EYWALL[S5][AEA]LA[Hyp]Y[hLeu]P-NH2; staple 4-11)
α-helicity (%) [1]: 37%
Ki (^25-109MDM2): 350 nM
Ki (^24-108MDMX): 530 nM
helicity (circular dichroism): 37%
enhancement of IC50 against HCT116 p53^+/+ compared with SPMI2 (HCT116 p53^+/+ cells; CCK-8, 72 h): ~5 fold
IC50 (HCT116 p53^+/+ cells; CCK-8, 72 h incubation, absorbance 450 nm, read-out: IC50 (μM) HCT116 p53^+/+): 6.7 µM
turning point of atypical degradation of MDM2 and MDMX [2]: approximately 20 μM
remaining at 1.5 h, 1 mM (α-Chymotrypsin): > 60%
Cmax (Pharmacokinetic study; mean): 17700 ng/mL
AUC(0-inf) (Pharmacokinetic study): 43900 ng·h/mL
MRT (Pharmacokinetic study): 11.5 h
half-life (Pharmacokinetic study; read-out: half-life (t1/2) (converted)): 9.3 h
